In US20250263441A1 (Metanovas Biotech Inc., priority 2024, published 2025):
“And” between values parts separate entries of the source, which are not always exact repeats. Identical values can stand only once.

Legend:
Assay type in all cases: cell-based
[1] = tested on: rabbit blood erythrocytes; assay: Measurement of hemolytic concentration; details: for Hemolysis rate: 37° C., 1 hour, replicate wells
Procedure: 4 mL of 2% rabbit blood erythrocytes were washed twice with 4 mL PBS and centrifuged at 3000 rpm for 5 minutes. The supernatant was discarded, and the rabbit blood erythrocytes were resuspended in 4 mL PBS. 160 μg of the peptides from Examples 1 to 2, FK13, and HPA3NT3 were independently dissolved in 1 mL PBS buffer to prepare the peptide mother solutions with a concentration of 160 μg/mL. Subsequently, the peptide mother solutions were diluted with PBS buffer to concentrations of 80 μg/mL, 64 μg/mL, 32 μg/mL, 16 μg/mL, and 8 μg/mL. 100 μL of the 2% rabbit blood erythrocytes and 100 μL of different concentrations of peptides (80 μg/mL, 64 μg/mL, 32 μg/mL, 16 μg/mL, 8 μg/mL) were added to each well of a 96-well plate. In the negative control, 100 μL of PBS buffer was added, while in the positive control, 100 μL of 0.1% (w/v) Triton X-100 was added. Three replicate wells were set up for each group and incubated at 37° C. for 1 hour. The 96-well plate was then removed, centrifuged at 3000 rpm for 5 minutes, and 100 μL of supernatant was aspirated and transferred to a new 96-well plate. The absorbance was measured at 540 nm using an enzyme meter. Hemolysis rate (%)=((Absorbancesample−Absorbancenegative)/(Absorbancepositive−Absorbancenegative))*100%.

Helicobacter pylori = assay: Inhibitory effect of AMP-33 on Helicobacter pylori; details: 5 and 10 μg/mL, 48 hours
Procedure: (1) Helicobacter pylori was cultured to the logarithmic phase. Then, 4.5 mL of the bacterial solution was centrifuged at 5,000 g for 6 minutes, and the organisms were resuspended in Wilkins-Chalgren medium. The concentration of the bacterial solution was adjusted to approximately 2× 10^5 CFU/mL using pre-configured McClure's turbidimetric tubes.
(2) Helicobacter pylori was cultured in a microtiter plate (96 wells), and 50 μL of different AMP33 peptides were added (at concentrations of 5 and 10 μg/mL). Next, 100 μL of diluted Helicobacter pylori bacterial fluid was added, followed by 50 μL of medium until the final concentration reached 1×10^5 CFU/mL.
(3) A blank control was provided with equal amounts of medium solution and bacterial solution as in the experimental group, with at least 3 replicates for each treatment group.
(4) The 96-well plate was placed in a bacterial incubator at 37° C. and incubated at 150 rpm for 48 hours.

[2] = tested on: Mouse macrophage RAW264.7 cells; assay: NO concentration after treatment of LPS-stimulated RAW264.7 cells; details: LPS 10 ng/ml, 24 hours, replicate experiments
Procedure: (1) Mouse macrophage RAW264.7 cells were cultured in DMEM supplemented with 10% fetal bovine serum (FBS) and 1% penicillin and streptomycin (P/S) at 37° C. in a 5% CO2 incubator.
(2) 5×10^4 mouse-derived RAW264.7 macrophages were placed in 12-well cell culture plates and cultured for 24 hours. Then, 20 μL of PBS (negative control), Dexamethasone (positive control), and the test peptide were added to the wells for incubation for 2 hours. Afterward, 10 ng/ml of lipopolysaccharide (LPS) was mixed with RAW264.7 cells and incubated for 24 hours.
(3) The supernatant was collected, and NO and IL-6/IL-1ß expression levels were measured using a commercial kit.

Escherichia coli = assay: Minimum inhibitory concentration on Escherichia coli (liquid culture); details: 37° C., 24 to 48 hours
Procedure: Primary screening of liquid culture: the peptides in Examples 1 to 2 were dissolved in pure water to a concentration of 100 μg/mL. Using a micropipette, 10 μL of the peptides were added to a new 96-well plate in order from left to right, starting from the second compartment. Positive and negative controls were established for use. The 96-well plates were arranged vertically, and the peptide concentrations in the control groups were the same as those of the antimicrobial peptides. The control groups included: pure water and bacteria, antimicrobial peptide FK13 and bacteria, antimicrobial peptide HPA3NT3 and bacteria, and ciprofloxacin and bacteria. An aseptic medium was used.
If a 96-deep-well plate was used to culture bacteria, an additional 100 μL of sterile medium was added to all wells.
E. coli was inoculated in LB medium with normal oxygen concentration (21%) for 48 hours. E. coli clones were picked and incubated in LB medium at 37° C. with normal oxygen concentration (21%) for an additional 48 hours. The bacterial concentration was measured and diluted to 107 CFU/mL with culture medium for use.
The prepared fresh bacterial suspension was diluted to 105 CFU/mL and added to the 96-well plate with 90 μL of the bacterial suspension per well. The plate was incubated at 37° C. with a normal oxygen concentration for 24 to 48 hours (Propionibacterium acnes was cultured anaerobically at 37° C. for 24 to 48 hours in an anaerobic bag). The absorbance at 630 nm was measured using a microplate reader, and the degree of turbidity was observed by the naked eye.
(iv) Repetition of Operations: The Operations in (iii) were Repeated Twice, and the Decision to Perform a Third Repetition was Based on the Reproducibility of the Experiment.

[3] = tested on: Propionibacterium acnes (ATCC: 6919); assay: Inhibitory effect of AMP-33 on Propionibacterium acnes (viability, OD 630 nm); parameters: Viability of Propionibacterium acnes: unit: %; details: for Viability of Propionibacterium acnes: 48 hours, repeated experiments
Procedure: (1) Propionibacterium acnes was inoculated into Wilkins Chalgren liquid medium and cultured overnight under anaerobic conditions at 37° C. (Labiophy HL-B fully automated anaerobic workstation).
(2) 200 μL of the Wilkins Chalgren liquid culture medium and a predetermined concentration of the peptide AMP-33 were added to a 96-deep-well plate. Then, 10 μL of Propionibacterium acnes was inoculated (mix well before inoculation).
(3) After 48 hours of cultivation under anaerobic conditions at 37° C., the turbidity of the bacterial solution was observed. Then, 100 μL of the solution was taken, and the OD at 630 nm was measured using the enzyme-linked immunosorbent assay (ELISA) reading plate (after multiple blows and mixing).
[formula] • OD Measurement: OD value of the test peptide. • ODneg: OD value with no bacterial inoculation, containing only […] medium. • ODpos: OD value with bacterial inoculation and without inhibitors.

In the case of “Example 2: LSKWLKKLGKLLAG (designated as AMP33)”, the Hemolysis rate ([1]; 8 μg/mL) was 3.6% and 7.9% and 23%, the Hemolysis rate ([1]; 16 μg/mL) was 2.6% and 1.7% and −0.4% and the Hemolysis rate ([1]; 32 μg/mL) was 0.6% and 4.6% and 3.3%. The Hemolysis rate ([1]; 64 μg/mL) was 0.7% and −0.8% and −2.0%, the Hemolysis rate ([1]; 80 μg/mL) was 10.1% (2×) and 11.1% and the Minimum hemolytic concentration ([1]; rabbit erythrocytes) was 64.0 µg/mL. The “inhibitory activity against H. pylori” value (Helicobacter pylori) was “approximately 100%”, the NO concentration ([2]; AMP-33 2 μg/mL) was 12.70 µM and 13.54 µM and 13.37 µM and the NO concentration ([2]; AMP-33 4 μg/mL) was 12.35 µM and 12.14 µM and 11.10 µM. For the same substance, the NO concentration ([2]; AMP-33 8 μg/mL) was 10.26 µM and 10.75 µM and 11.10 µM, the NO concentration ([2]; AMP-33 25 μg/mL) was 2.82 µM and 2.89 µM and 3.83 µM and the NO concentration ([2]; AMP-33 50 μg/mL) was 1.27 µM and 1.33 µM and 1.60 µM. The NO concentration ([2]; AMP-33 100 μg/mL) was 1.60 µM and 1.13 µM and 1.54 µM, the “Minimum inhibitory concentration on Escherichia coli” value (Escherichia coli) was 50 µg/mL and the “Viability of Propionibacterium acnes” value ([3]; 1 μg/mL) was 94.82 and 113.75 and 94.03. For the same substance, the “Viability of Propionibacterium acnes” value ([3]; 2 μg/mL) was 79.37 and 65.48 and 68.87 and the “inhibition of Propionibacterium acnes” value ([3]; 4 ppm) was “over 90%”.
